The source of these data is patent US11319315B2, “Cyclohexyl acid triazole azoles as LPA antagonists” (BRISTOL-MYERS SQUIBB COMPANY, priority 2017, dated 2022).

Like-named read-outs stand apart in the source and are kept apart here.

For this assay, the target named is T1, human LPA1 (Homo sapiens, UniProt Q92633).
T1 construct: expressed in transfected cells; host or cells: Chinese hamster ovary (CHO) cells
The assay can be described thus: LPA1 functional antagonist assay (LPA-induced calcium flux in CHO cells overexpressing human LPA1). It counts as cell-based. The note with it: read-out: hLPA1 IC50. The gist of the method: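 CHO cells overexpressing human LPA1, dye-loaded 30 min at 37 °C, then given compound (0.08 nM–5 μM final, 0.5% DMSO) in HBSS/20 mM HEPES/0.1% fatty-acid-free BSA for 20 min at room temperature before 10 nM LPA. IC50 as 50% inhibition of LPA-evoked calcium flux, 4-parameter logistic fit.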
A general note: A change in cytosolic calcium serves as a functional read-out for many receptors and channels.

Where [1] appears, read: inhibition of calcium flux induced by 10 nM LPA, CHO cells overexpressing human LPA1.

T1 sequence (Q92633 whole entry): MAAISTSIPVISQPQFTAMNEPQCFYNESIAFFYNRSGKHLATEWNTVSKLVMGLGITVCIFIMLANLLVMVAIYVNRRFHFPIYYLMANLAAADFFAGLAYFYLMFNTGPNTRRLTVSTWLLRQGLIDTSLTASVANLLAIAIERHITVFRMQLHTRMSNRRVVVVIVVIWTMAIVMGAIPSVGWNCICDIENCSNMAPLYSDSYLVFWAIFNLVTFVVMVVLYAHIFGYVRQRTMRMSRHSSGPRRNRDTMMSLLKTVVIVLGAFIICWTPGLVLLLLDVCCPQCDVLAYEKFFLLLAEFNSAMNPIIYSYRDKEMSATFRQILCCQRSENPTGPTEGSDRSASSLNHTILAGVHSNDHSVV

As for `Cc1nc(-c2nnn(C)c2CNc2nnn(-c3ccc(Cl)cc3)n2)ccc1O[C@H]1CCC[C@H](C(=O)O)C1` [Example 384, (1S,3S)-3-((6-(5-(((2-(4-chloro-phenyl)-2H-tetrazol-5-yl)amino)methyl)-1-methyl-1H-1,2,3-triazol-4-yl)-2-methylpyridin-3-yl)oxy)cyclohexane-1-carboxylic acid], under setting [1], the 50% inhibitory concentration (IC50) was found to be 41 nM.

Consider `Cc1ccc(-n2nnc(NCc3c(-c4ccc(O[C@H]5CCC[C@H](C(=O)O)C5)c(C)n4)nnn3C)n2)cc1` [Example 385, (1S,3S)-3-((2-methyl-6-(1-methyl-5-(((2-(p-tolyl)-2H-tetrazol-5-yl)amino)methyl)-1H-1,2,3-triazol-4-yl)pyridin-3-yl)oxy)cyclohexane-1-carboxylic acid], for which the IC50 is 158 nM.

Take `Cc1nc(-c2nnn(C)c2CNc2nnn(CC3CC3)n2)ccc1O[C@H]1CCC[C@H](C(=O)O)C1` [Example 386, (1S,3S)-3-((6-(5-(((2-(cyclopropyl-methyl)-2H-tetrazol-5-yl)amino)methyl)-1-methyl-1H-1,2,3-triazol-4-yl)-2-methylpyridin-3-yl)oxy)cyclohexane-1-carboxylic acid]: the IC50 was 26 nM.

Turning to `CCCn1nnc(NCc2c(-c3ccc(O[C@H]4CCC[C@H](C(=O)O)C4)c(C)n3)nnn2C)n1` [Example 387, (1S,3S)-3-((2-methyl-6-(1-methyl-5-(((2-propyl-2H-tetrazol-5-yl)amino)methyl)-1H-1,2,3-triazol-4-yl)pyridin-3-yl)oxy)cyclohexane-1-carboxylic acid], the concentration for half-maximal inhibition (IC50) is 285 nM.

In the case of `Cc1nc(-c2nnn(C)c2CNc2nnn(CC(C)C)n2)ccc1O[C@H]1CCC[C@H](C(=O)O)C1` [Example 388, (1S,3S)-3-((6-(5-(((2-isobutyl-2H-tetrazol-5-yl)amino)methyl)-1-methyl-1H-1,2,3-triazol-4-yl)-2-methylpyridin-3-yl)oxy)cyclo-hexane-1-carboxylic acid], the IC50 is 43 nM.

Regarding `Cc1nc(-c2nnn(C)c2CNc2nnn(-c3ccccc3)n2)ccc1O[C@H]1CCC[C@H](C(=O)O)C1` [Example 389, (1S,3S)-3-((2-methyl-6-(1-methyl-5-(((2-phenyl-2H-tetrazol-5-yl)amino)methyl)-1H-1,2,3-triazol-4-yl)pyridin-3-yl)oxy)cyclohexane-1-carboxylic acid], the half-inhibitory concentration (IC50) worked out at 84 nM.

`Cc1nc(-c2nnn(C)c2CNc2nnnn2Cc2ccccc2)ccc1O[C@H]1CCC[C@H](C(=O)O)C1` [Example 390, (1S,3S)-3-((6-(5-(((1-benzyl-1H-tetrazol-5-yl)amino)methyl)-1-methyl-1H-1,2,3-triazol-4-yl)-2-methylpyridin-3-yl)oxy)cyclo-hexane-1-carboxylic acid]: the IC50 is 375 nM.

On to `Cc1nc(-c2nnn(C)c2CNc2nnn(Cc3ccccc3)n2)ccc1O[C@H]1CCC[C@H](C(=O)O)C1` [Example 391, (1S,3S)-3-((6-(5-(((2-benzyl-2H-tetrazol-5-yl)amino)methyl)-1-methyl-1H-1,2,3-triazol-4-yl)-2-methylpyridin-3-yl)oxy)cyclo-hexane-1-carboxylic acid], for which the half-inhibitory concentration (IC50) is 23 nM.

On to `C=CCn1nnc(NCc2c(-c3ccc(O[C@H]4CCC[C@H](C(=O)O)C4)c(C)n3)nnn2C)n1` [Example 392, (1S,3S)-3-((6-(5-(((2-allyl-2H-tetrazol-5-yl)amino)methyl)-1-methyl-1H-1,2,3-triazol-4-yl)-2-methylpyridin-3-yl)oxy)cyclo-hexane-1-carboxylic acid], for which the 50% inhibitory concentration (IC50) was determined as 167 nM.

For `CCc1nc(-c2nnn(C)c2CNc2nc(C3CCCC3)ns2)ccc1O[C@H]1CCC[C@H](C(=O)O)C1` [Example 393, (1S,3S)-3-((6-(5-(((3-cyclopentyl-1,2,4-thiadiazol-5-yl)amino)methyl)-1-methyl-1H-1,2,3-triazol-4-yl)-2-ethylpyridin-3-yl)oxy)cyclohexane-1-carboxylic acid], the IC50 was determined as 35 nM.

Take `CCc1nc(-c2nnn(C)c2CNc2nc(C(C)(C)C)ns2)ccc1O[C@H]1CCC[C@H](C(=O)O)C1` [Example 394, (1S,3S)-3-((6-(5-(((3-(tert-butyl)-1,2,4-thiadiazol-5-yl)amino)methyl)-1-methyl-1H-1,2,3-triazol-4-yl)-2-ethylpyridin-3-yl)oxy)cyclohexane-1-carboxylic acid]: the IC50 turned out to be 66 nM.

As for `CCc1nc(-c2nnn(C)c2CNc2nc(CC(C)C)ns2)ccc1O[C@H]1CCC[C@H](C(=O)O)C1` [Example 395, (1S,3S)-3-((2-ethyl-6-(5-(((3-isobutyl-1,2,4-thiadiazol-5-yl)amino)methyl)-1-methyl-1H-1,2,3-triazol-4-yl)pyridin-3-yl)oxy)cyclohexane-1-carboxylic acid], the half-maximal inhibitory concentration (IC50) was found to be 22 nM.

`CCc1nc(-c2nnn(C)c2CNc2nc(C3CCC3)ns2)ccc1O[C@H]1CCC[C@H](C(=O)O)C1` [Example 396, (1S,3S)-3-((6-(5-(((3-cyclobutyl-1,2,4-thiadiazol-5-yl)amino)methyl)-1-methyl-1H-1,2,3-triazol-4-yl)-2-ethylpyridin-3-yl)oxy)cyclohexane-1-carboxylic acid]: the IC50 came to 33 nM.

With `CCc1nc(-c2nnn(C)c2CNc2nc(C3CC3)ns2)ccc1O[C@H]1CCC[C@H](C(=O)O)C1` [Example 397, (1S,3S)-3-((6-(5-(((3-cyclopropyl-1,2,4-thiadiazol-5-yl)amino)methyl)-1-methyl-1H-1,2,3-triazol-4-yl)-2-ethylpyridin-3-yl)oxy)cyclohexane-1-carboxylic acid], the IC50 was determined as 931 nM.

In the case of `CCc1nc(-c2nnn(C)c2CNc2nc(C(C)C)ns2)ccc1O[C@H]1CCC[C@H](C(=O)O)C1` [Example 398, (1S,3S)-3-((2-ethyl-6-(5-(((3-isopropyl-1,2,4-thiadiazol-5-yl)amino)methyl)-1-methyl-1H-1,2,3-triazol-4-yl)pyridin-3-yl)oxy)cyclohexane-1-carboxylic acid], the half-inhibitory concentration (IC50) was 59 nM.

With `CCCc1nsc(NCc2c(-c3ccc(O[C@H]4CCC[C@H](C(=O)O)C4)c(CC)n3)nnn2C)n1` [Example 399, (1S,3S)-3-((2-ethyl-6-(1-methyl-5-(((3-propyl-1,2,4-thiadiazol-5-yl)amino)methyl)-1H-1,2,3-triazol-4-yl)pyridin-3-yl)oxy)cyclohexane-1-carboxylic acid], the IC50 worked out at 73 nM.

Turning to `Cc1nc(-c2nnn(C)c2Cc2nnn(CCC3CC3)n2)ccc1O[C@H]1CCC[C@H](C(=O)O)C1` [Example 400, (1S,3S)-3-{[6-(5-{[2-(2-cyclo-propylethyl)-2H-1,2,3,4-tetrazol-5-yl]methyl}-1-methyl-1H-1,2,3-triazol-4-yl)-2-methylpyridin-3-yl]oxy}cyclohexane-1-carboxylic acid], the IC50 came to 128 nM. Also, the concentration for half-maximal inhibition (IC50) under setting [1] was found to be 129 nM.

As to `COCCCn1nnc(Cc2c(-c3ccc(O[C@H]4CCC[C@H](C(=O)O)C4)c(C)n3)nnn2C)n1` [Example 401, (1S,3S)-3-{[6-(5-{[2-(3-methoxy-propyl)-2H-1,2,3,4-tetrazol-5-yl]methyl}-1-methyl-1H-1,2,3-triazol-4-yl)-2-methylpyridin-3-yl]oxy}cyclohexane-1-carboxylic acid], the concentration for half-maximal inhibition (IC50) came out at 1120 nM.

`Cc1nc(-c2nnn(C)c2Cc2nnn(Cc3ccccc3)n2)ccc1O[C@H]1CCC[C@H](C(=O)O)C1` [Example 402, (1S,3S)-3-[(6-{5-[(2-benzyl-2H-1,2,3,4-tetrazol-5-yl)methyl]-1-methyl-1H-1,2,3-triazol-4-yl}-2-methylpyridin-3-yl)oxy]cyclo-hexane-1-carboxylic acid]: the 50% inhibitory concentration (IC50) amounted to 47 nM.

As for `COC[C@@H](C)Oc1nnn(Cc2c(-c3ccc(O[C@H]4CCC[C@H](C(=O)O)C4)c(C)n3)nnn2C)n1` [Example 403, (1S,3S)-3-[(6-{5-[(5-{[(2R)-1-methoxypropan-2-yl]oxyl}-2H-1,2,3,4-tetrazol-2-yl)methyl]-1-methyl-1H-1,2,3-triazol-4-yl}-2-methylpyridin-3-yl)oxy]cyclo-hexane-1-carboxylic acid], the half-inhibitory concentration (IC50) came to 250 nM.

Consider `COCCCOc1nnn(Cc2c(-c3ccc(O[C@H]4CCC[C@H](C(=O)O)C4)c(C)n3)nnn2C)n1` [Example 404, (1S,3S)-3-{[6-(5-{[5-(3-methoxy-propoxy)-2H-1,2,3,4-tetrazol-2-yl]methyl}-1-methyl-1H-1,2,3-triazol-4-yl)-2-methylpyridin-3-yl]oxy}cyclohexane-1-carboxylic acid], for which the half-maximal inhibitory concentration (IC50) worked out at 365 nM.

As to `Cc1nc(-c2nnn(C)c2Cn2nnc(OCC3CC4CCC3C4)n2)ccc1O[C@H]1CCC[C@H](C(=O)O)C1` (stereo partly drawn) [Example 405, (1S,3S)-3-{[6-(5-{[5-({bicyclo[2.2.1]heptan-2-yl}methoxy)-2H-1,2,3,4-tetrazol-2-yl]methyl}-1-methyl-1H-1,2,3-triazol-4-yl)-2-methylpyridin-3-yl]oxy}cyclohexane-1-carboxylic acid], the IC50 was 47 nM.

Regarding `COCCCCCOc1nnn(Cc2c(-c3ccc(O[C@H]4CCC[C@H](C(=O)O)C4)c(C)n3)nnn2C)n1` [Example 406, (1S,3S)-3-({6-[5-({5-[(5-methoxy-pentyl)oxy]-2H-1,2,3,4-tetrazol-2-yl}methyl)-1-methyl-1H-1,2,3-triazol-4-yl]-2-methylpyridin-3-yl}oxy)cyclohexane-1-carboxylic acid], the IC50 turned out to be 681 nM.

Take `COCCOc1nnn(Cc2c(-c3ccc(O[C@H]4CCC[C@H](C(=O)O)C4)c(C)n3)nnn2C)n1` [Example 407, (1S,3S)-3-{[6-(5-{[5-(2-methoxy-ethoxy)-2H-1,2,3,4-tetrazol-2-yl]methyl}-1-methyl-1H-1,2,3-triazol-4-yl)-2-methylpyridin-3-yl]oxy}cyclohexane-1-carboxylic acid]: the IC50 turned out to be 142 nM.

By IC50 is commonly meant the midpoint of a concentration-inhibition curve.
